Reference: US5162326A, “Pyrimidinedione derivatives, their production and use” (Takeda Chemical Industries, Ltd., priority 1990, dated 1992)

Tests used:
[1] = target: T1, A-II-receptor (Bos taurus, UniProt P25104); test: Inhibition of Binding of Angiotensin-II to Angiotensin Receptor (125I-A-II, membrane fraction of bovine adrenal cortex); conditions: room temperature, one hour
T1 construct: An A-II-receptor was prepared from the membrane fraction of bovine adrenal cortex; from tissue; host or cells: bovine adrenal cortex, membrane fraction
T1 sequence (P25104 1-359): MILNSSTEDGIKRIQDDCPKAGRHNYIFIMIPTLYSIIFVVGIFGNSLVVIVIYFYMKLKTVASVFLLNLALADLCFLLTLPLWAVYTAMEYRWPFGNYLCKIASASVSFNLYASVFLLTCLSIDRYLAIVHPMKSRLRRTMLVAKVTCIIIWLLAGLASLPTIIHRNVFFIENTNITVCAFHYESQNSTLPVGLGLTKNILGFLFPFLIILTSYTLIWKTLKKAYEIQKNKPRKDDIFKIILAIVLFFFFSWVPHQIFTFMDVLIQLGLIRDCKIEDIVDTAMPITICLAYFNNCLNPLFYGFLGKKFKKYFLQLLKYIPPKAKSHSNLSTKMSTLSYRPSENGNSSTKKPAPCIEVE
Experimental: Inhibition of Binding of Angiotensin-II to Angiotensin Receptor
An experiment of inhibition on the binding of angiotensin-II (A-II) to A-II-receptor was conducted by modifying the method of Douglas et al. [Endocrinology, 102, 685-696 (1978)]. An A-II-receptor was prepared from the membrane fraction of bovine adrenal cortex.
The compound of the present invention (10^-6 M to 10^-8 M) and ^125 I-A-II (1.85 kBq/50 μl) were added to the receptor membrane fraction, and the mixture was incubated at room temperature for one hour. The receptor-bound and free ^125 I-A-II were separated through a filter (Whatman GF/B filter), and the radioactivity of ^125 I-A-II bound to the receptor was measured.

[2] = test system: Pressor Response to A II; test: Inhibitory Effect of the Compound on Pressor Action of A-II in rats; type: in vivo, Jcl: SD rats; conditions: Rattus norvegicus, po
Text: Inhibitory Effect of the Compound of the Present Invention on Pressor Action of A-II
Jcl: SD rats (9 week old, male) were used. On the day previous to the experiment, these animals were applied with cannulation into the femoral artery and vein under anesthesia with pentobarbital Na. The animals were fasted but allowed to access freely to drinking water until the experiment was started. Just on the day of conducting the experiment, the artery cannula was connected with a blood-pressure transducer, and the average blood pressure was recorded by means of polygraph. Before administration of the drug, the pressor action due to intravenous administration of A-II (100 ng/kg) as the control was measured. The drugs were orally administered, and then, at each point of the measurement, A-II was administered intravenously, and the pressor action was similarly measured. By comparing the pressor action before and after administration of the drug, the percent inhibition by the drug on A-II-induced pressor action was evaluated.

[3] = test system: angiotensin II; conditions: reported in the literature; cited from earlier work

SMILES | IC50 [1] [nM] | inhibition in vivo at 30 mg/kg [2] [%] | angiotensin II antagonistic activity [3]
CCCOc1cc(=O)n(CCC)c(=O)n1Cc1ccc(-c2ccccc2-c2nnn[nH]2)cc1 [compound 18] | 140 | ≥ 70 | 
CCCNc1cc(=O)n(CCC)c(=O)n1Cc1ccc(-c2ccccc2-c2nn[nH]n2)cc1 [compound 14] | 340 | < 30 | 
CNCC(=O)N[C@@H](CCCN=C(N)N)C(=O)N[C@H](C(=O)N[C@@H](Cc1ccc(O)cc1)C(=O)N[C@H](C(=O)N[C@@H](Cc1cnc[nH]1)C(=O)N1CCC[C@H]1C(=O)N[C@@H](C)C(=O)O)C(C)C)C(C)C [saralasin] |  |  | potent angiotensin II antagonistic activity
CCCn1c(=O)cc(SCC)n(Cc2ccc(-c3ccccc3-c3nn[nH]n3)cc2)c1=O [compound 2] | 20 | ≥ 70 | 
CCCCSc1cc(=O)n(CCC)c(=O)n1Cc1ccc(-c2ccccc2-c2nn[nH]n2)cc1 [compound 4] | 40 | ≥ 70 | 
CCCCn1c(=O)cc(SCCC)n(Cc2ccc(-c3ccccc3-c3nn[nH]n3)cc2)c1=O [compound 9] | 40 | ≥ 70 | 
CCCCn1c(=O)cc(CCC)n(Cc2ccc(-c3ccccc3-c3nn[nH]n3)cc2)c1=O [compound 26] | 20 | ≥ 70 | 
CCCn1c(=O)cc(SCc2ccccc2)n(Cc2ccc(-c3ccccc3-c3nn[nH]n3)cc2)c1=O [compound 7] | 330 | < 30 | 
CCCc1cc(=O)n(CCC)c(=O)n1Cc1ccc(-c2ccccc2-c2nn[nH]n2)cc1 [compound 25] | 20 | ≥ 70 | 
CCCc1cc(=O)n(CC(=O)OCC)c(=O)n1Cc1ccc(-c2ccccc2-c2nn[nH]n2)cc1 [compound 28] | 20 | ≥ 70 | 
CCCCn1c(=O)cc(Sc2ccccc2)n(Cc2ccc(-c3ccccc3-c3nn[nH]n3)cc2)c1=O [compound 10] | 320 | < 30 | 
CCCSc1cc(=O)n(CCC)c(=O)n1Cc1ccc(-c2ccccc2-c2nnn[nH]2)cc1 [compound 3] | 20 |  | 
CCCc1cc(=O)n(CC(=O)OC)c(=O)n1Cc1ccc(-c2ccccc2-c2nn[nH]n2)cc1 [compound 27] | 10 | ≥ 70 | 
CCCn1c(=O)cc(SC2CCCCC2)n(Cc2ccc(-c3ccccc3-c3nn[nH]n3)cc2)c1=O [compound 5] | 320 | 30 to 50 | 
CCCn1c(=O)cc(OCC)n(Cc2ccc(-c3ccccc3-c3nn[nH]n3)cc2)c1=O [compound 8] | 60 | ≥ 70 | 
CCCc1cc(=O)n(CC)c(=O)n1Cc1ccc(-c2ccccc2-c2nn[nH]n2)cc1 [compound 23] | 20 | ≥ 70 | 
CCCCCSc1cc(=O)n(CCC)c(=O)n1Cc1ccc(-c2ccccc2-c2nn[nH]n2)cc1 [compound 6] | 20 | 30 to 50 | 
CCCn1c(=O)cc(SC)n(Cc2ccc(-c3ccccc3-c3nn[nH]n3)cc2)c1=O [compound 1] | 860 |  | 
